Laboratory results reported in patent publication US20210317134A1, “UBIQUITIN-SPECIFIC-PROCESSING PROTEASE 7 (USP7) MODULATORS AND USES THEREOF” (RAPT THERAPEUTICS, INC., priority 2019, published 2021).

What follows are molecules tested against USP7 (Homo sapiens, UniProt Q93009) (assay: USP7 inhibitory potency (Table 1)).
Format: biochemical

USP7, sequence (Q93009 whole entry): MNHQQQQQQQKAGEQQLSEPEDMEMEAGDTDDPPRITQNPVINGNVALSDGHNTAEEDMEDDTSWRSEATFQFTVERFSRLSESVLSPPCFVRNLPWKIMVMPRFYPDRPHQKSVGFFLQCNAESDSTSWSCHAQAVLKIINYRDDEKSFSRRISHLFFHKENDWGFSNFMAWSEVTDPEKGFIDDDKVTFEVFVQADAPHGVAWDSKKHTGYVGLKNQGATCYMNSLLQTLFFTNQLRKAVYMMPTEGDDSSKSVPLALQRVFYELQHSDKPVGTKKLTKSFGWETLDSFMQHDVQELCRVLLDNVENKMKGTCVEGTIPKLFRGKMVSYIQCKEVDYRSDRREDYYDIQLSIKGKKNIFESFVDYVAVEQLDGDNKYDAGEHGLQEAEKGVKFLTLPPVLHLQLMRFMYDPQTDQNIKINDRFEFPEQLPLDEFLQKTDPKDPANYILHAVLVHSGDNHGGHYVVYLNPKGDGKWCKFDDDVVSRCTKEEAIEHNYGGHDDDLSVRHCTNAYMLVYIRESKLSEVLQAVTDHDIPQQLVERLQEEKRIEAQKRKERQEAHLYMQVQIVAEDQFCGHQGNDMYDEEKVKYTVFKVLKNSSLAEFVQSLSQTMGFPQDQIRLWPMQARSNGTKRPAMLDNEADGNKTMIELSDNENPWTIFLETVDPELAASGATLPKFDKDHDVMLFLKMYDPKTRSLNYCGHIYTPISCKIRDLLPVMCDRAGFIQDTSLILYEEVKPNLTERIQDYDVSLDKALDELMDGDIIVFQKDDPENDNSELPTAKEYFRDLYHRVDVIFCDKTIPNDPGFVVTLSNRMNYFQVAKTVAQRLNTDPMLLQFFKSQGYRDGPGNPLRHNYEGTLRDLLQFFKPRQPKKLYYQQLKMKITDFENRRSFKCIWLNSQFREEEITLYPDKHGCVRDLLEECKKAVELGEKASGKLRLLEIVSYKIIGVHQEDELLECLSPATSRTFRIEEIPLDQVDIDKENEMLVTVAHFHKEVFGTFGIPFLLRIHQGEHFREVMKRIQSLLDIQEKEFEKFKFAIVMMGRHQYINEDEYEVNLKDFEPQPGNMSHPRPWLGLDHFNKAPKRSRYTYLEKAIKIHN

IC50 | SMILES
< 1000 nM | CCC(O)c1cc2nccc(-c3cc(Cl)cc4c3O[C@@H](c3c5c(nn3C)CCNC5)C4)c2s1 (stereo partly drawn) [1-(7-((R)-5-chloro-2-(2-methyl-4,5,6,7-tetrahydro-2H-pyrazolo[4,3-c]pyridin-3-yl)-2,3-dihydrobenzofuran-7-yl)thieno[3,2-b]pyridin-2-yl)propan-1-ol]
< 1000 nM | CC(=O)NCc1cc2nccc(-c3cc(Cl)cc4c3O[C@@H](c3c5c(nn3C)CCNC5)C4)c2s1 [(R)-N-((7-(5-chloro-2-(2-methyl-4,5,6,7-tetrahydro-2H-pyrazolo[4,3-c]pyridin-3-yl)-2,3-dihydrobenzofuran-7-yl)thieno[3,2-b]pyridin-2-yl)methyl)acetamide]
1000 to 10000 nM | O=C(C1Cc2cc(Cl)cc(-c3ccnc4[nH]ccc34)c2O1)N1CCN(c2ccncn2)CC1 (stereo not drawn) [(5-chloro-7-(1H-pyrrolo[2,3-b]pyridin-4-yl)-2,3-dihydrobenzofuran-2-yl)(4-(pyrimidin-4-yl)piperazin-1-yl)methanone]
< 1000 nM | O=C([C@H]1Cc2cc(Cl)cc(-c3ccnc4c3CC(CN3C(=O)CCC3=O)C4)c2O1)N1CCNCC1 (stereo partly drawn) [1-((4-((R)-5-chloro-2-(piperazine-1-carbonyl)-2,3-dihydrobenzofuran-7-yl)-6,7-dihydro-5H-cyclopenta[b]pyridin-6-yl)methyl)pyrrolidine-2,5-dione]
1000 to 10000 nM | CCC(O)c1cc2ncnc(-c3cc(Cl)cc4c3O[C@@H](c3onc5c3CNCC5)C4)c2o1 (stereo partly drawn) [1-(4-((R)-5-chloro-2-(4,5,6,7-tetrahydroisoxazolo[4,3-c]pyridin-3-yl)-2,3-dihydrobenzofuran-7-yl)furo[3,2-d]pyrimidin-6-yl)propan-1-ol]
1000 to 10000 nM | CC[C@H](O)c1cc2nccc(-c3cc(Cl)cc4c3O[C@](C)(c3onc5c3CNCC5)C4)c2s1 [(S)-1-(7-((S)-5-chloro-2-methyl-2-(4,5,6,7-tetrahydroisoxazolo[4,3-c]pyridin-3-yl)-2,3-dihydrobenzofuran-7-yl)thieno[3,2-b]pyridin-2-yl)propan-1-ol]
1000 to 10000 nM | FC(F)(F)c1ccc2c(-c3cc(Cl)cc4c3O[C@@H](c3onc5c3CNCC5)C4)ccnc2c1 [(R)-3-(5-chloro-7-(7-(trifluoromethyl)quinolin-4-yl)-2,3-dihydrobenzofuran-2-yl)-4,5,6,7-tetrahydroisoxazolo[4,3-c]pyridine]
< 1000 nM | Clc1cc2c(c(-c3ncnc4ccsc34)c1)O[C@@H](c1onc3c1CNCC3)C2 [(R)-3-(5-chloro-7-(thieno[3,2-d]pyrimidin-4-yl)-2,3-dihydrobenzofuran-2-yl)-4,5,6,7-tetrahydroisoxazolo[4,3-c]pyridine]
< 1000 nM | CCC(O)c1cc2nccc(-c3cc(Cl)cc4c3O[C@@H](c3onc5c3CNCC5)C4)c2o1 (stereo partly drawn) [drawing 1618, 1-(7-((R)-5-chloro-2-(4,5,6,7-tetrahydroisoxazolo[4,3-c]pyridin-3-yl)-2,3-dihydrobenzofuran-7-yl)furo[3,2-b]pyridin-2-yl)propan-1-ol]
< 1000 nM | CN[C@H]1CCCN(C(=O)[C@H]2Cc3cc(Cl)cc(-c4ccnc5ccsc45)c3O2)C1 [((R)-5-chloro-7-(thieno[3,2-b]pyridin-7-yl)-2,3-dihydrobenzofuran-2-yl)((S)-3-(methylamino)piperidin-1-yl)methanone]
1000 to 10000 nM | Nc1nccc(-c2cc(Cl)cc3c2OC(C(=O)N2CCNCC2)C3)c1Cl (stereo not drawn) [(7-(2-amino-3-chloropyridin-4-yl)-5-chloro-2,3-dihydrobenzofuran-2-yl)(piperazin-1-yl)methanone]
< 1000 nM | Clc1cc2c(c(-c3ccnc4ccsc34)c1)O[C@@H](c1onc3c1CNCC3)C2 [(R)-3-(5-chloro-7-(thieno[3,2-b]pyridin-7-yl)-2,3-dihydrobenzofuran-2-yl)-4,5,6,7-tetrahydroisoxazolo[4,3-c]pyridine]
< 1000 nM | CN(C)C1CCCN(C(=O)[C@H]2Cc3cc(Cl)cc(-c4ccnc5cc(CO)sc45)c3O2)C1 (stereo partly drawn) [((R)-5-chloro-7-(2-(hydroxymethyl)thieno[3,2-b]pyridin-7-yl)-2,3-dihydrobenzofuran-2-yl)(3-(dimethylamino)piperidin-1-yl)methanone]
1000 to 10000 nM | CN1CCc2noc([C@H]3Cc4cc(Cl)cc(-c5ccnc6cc(C#N)ccc56)c4O3)c2C1 [(R)-4-(5-chloro-2-(5-methyl-4,5,6,7-tetrahydroisoxazolo[4,3-c]pyridin-3-yl)-2,3-dihydrobenzofuran-7-yl)quinoline-7-carbonitrile]
< 1000 nM | NCc1cc2nccc(-c3cc(Cl)cc4c3O[C@@H](C(=O)N3CCNCC3)C4)c2s1 [(R)-(7-(2-(aminomethyl)thieno[3,2-b]pyridin-7-yl)-5-chloro-2,3-dihydrobenzofuran-2-yl)(piperazin-1-yl)methanone]
1000 to 10000 nM | C[C@H](O)c1cc2c(-c3cc(Cl)cc4c3OC(C(=O)N3CCNCC3)C4)ccnc2[nH]1 (stereo partly drawn) [(5-chloro-7-(2-((S)-1-hydroxyethyl)-1H-pyrrolo[2,3-b]pyridin-4-yl)-2,3-dihydrobenzofuran-2-yl)(piperazin-1-yl)methanone]
1000 to 10000 nM | O=C1CCC(c2cc3nccc(-c4cc(Cl)cc5c4O[C@@H](c4onc6c4CNCC6)C5)c3s2)N1 (stereo partly drawn) [5-(7-((R)-5-chloro-2-(4,5,6,7-tetrahydroisoxazolo[4,3-c]pyridin-3-yl)-2,3-dihydrobenzofuran-7-yl)thieno[3,2-b]pyridin-2-yl)pyrrolidin-2-one]

IC50 | SMILES
1000 to 10000 nM | O=C(C1Cc2cc(Cl)cc(-c3ccnc4[nH]ccc34)c2O1)N1CCN[C@@H](CO)C1 (stereo partly drawn) [(5-chloro-7-(1H-pyrrolo[2,3-b]pyridin-4-yl)-2,3-dihydrobenzofuran-2-yl)((R)-3-(hydroxymethyl)piperazin-1-yl)methanone]
< 1000 nM | CCC(O)c1cc2nccc(-c3cc(Cl)cc4c3O[C@@H](c3[nH]nc5c3CNCC5)C4)c2s1 (stereo partly drawn) [1-(7-((R)-5-chloro-2-(4,5,6,7-tetrahydro-2H-pyrazolo[4,3-c]pyridin-3-yl)-2,3-dihydrobenzofuran-7-yl)thieno[3,2-b]pyridin-2-yl)propan-1-ol]
1000 to 10000 nM | OCCN1CCc2noc([C@H]3Cc4cc(Cl)cc(-c5ncnc6ccoc56)c4O3)c2C1 [(R)-2-(3-(5-chloro-7-(furo[3,2-d]pyrimidin-4-yl)-2,3-dihydrobenzofuran-2-yl)-6,7-dihydroisoxazolo[4,3-c]pyridin-5(4H)-yl)ethan-1-ol]
< 1000 nM | CC(C)CC(O)c1cc2nccc(-c3cc(Cl)cc4c3O[C@@H](c3onc5c3CNCC5)C4)c2s1 (stereo partly drawn) [1-(7-((R)-5-chloro-2-(4,5,6,7-tetrahydroisoxazolo[4,3-c]pyridin-3-yl)-2,3-dihydrobenzofuran-7-yl)thieno[3,2-b]pyridin-2-yl)-3-methylbutan-1-ol]
< 1000 nM | Clc1cc2c(c(-c3ccnc4ccsc34)c1)O[C@H](c1onc3c1CNCC3)C2 [(S)-3-(5-chloro-7-(thieno[3,2-b]pyridin-7-yl)-2,3-dihydrobenzofuran-2-yl)-4,5,6,7-tetrahydroisoxazolo[4,3-c]pyridine]
< 1000 nM | Clc1cc2c(c(-c3ccnc4ccsc34)c1)O[C@@H](c1ocnc1CN1CCC1)C2 [(R)-4-(azetidin-1-ylmethyl)-5-(5-chloro-7-(thieno[3,2-b]pyridin-7-yl)-2,3-dihydrobenzofuran-2-yl)oxazole]
< 1000 nM | Cc1cc2ncnc(-c3cc(Cl)cc4c3O[C@@H](c3onc5c3CNCC5)C4)c2s1 [(R)-3-(5-chloro-7-(6-methylthieno[3,2-d]pyrimidin-4-yl)-2,3-dihydrobenzofuran-2-yl)-4,5,6,7-tetrahydroisoxazolo[4,3-c]pyridine]
< 1000 nM | CN(C)C1CCCN(C(=O)[C@H]2Cc3cc(Cl)cc(-c4ccnc5ccsc45)c3O2)C1 (stereo partly drawn) [((R)-5-chloro-7-(thieno[3,2-b]pyridin-7-yl)-2,3-dihydrobenzofuran-2-yl)(3-(dimethylamino)piperidin-1-yl)methanone]
< 1000 nM | CC(=O)NC(C)c1cc2nccc(-c3cc(Cl)cc4c3O[C@@H](C(=O)N3CCNCC3)C4)c2s1 (stereo partly drawn) [N-(1-(7-((R)-5-chloro-2-(piperazine-1-carbonyl)-2,3-dihydrobenzofuran-7-yl)thieno[3,2-b]pyridin-2-yl)ethyl)acetamide]
1000 to 10000 nM | O=C(C1Cc2cc(Cl)cc(-c3ccnc4[nH]ccc34)c2O1)N1CCN(c2cccnc2)CC1 (stereo not drawn) [(5-chloro-7-(1H-pyrrolo[2,3-b]pyridin-4-yl)-2,3-dihydrobenzofuran-2-yl)(4-(pyridin-3-yl)piperazin-1-yl)methanone]
< 1000 nM | N#Cc1ccc2c(-c3cc(Cl)cc4c3O[C@@H](c3n[nH]c5c3CNCC5)C4)ccnc2c1 [(R)-4-(5-chloro-2-(4,5,6,7-tetrahydro-1H-pyrazolo[4,3-c]pyridin-3-yl)-2,3-dihydrobenzofuran-7-yl)quinoline-7-carbonitrile]
1000 to 10000 nM | Nc1cc(-c2cc(Cl)cc3c2OC(C(=O)N2CCNCC2)C3)ccn1 (stereo not drawn) [(7-(2-Aminopyridin-4-yl)-5-chloro-2,3-dihydrobenzofuran-2-yl)(piperazin-1-yl)methanone]
10000 to 30000 nM | O=C([C@H]1Cc2cc(Cl)cc(-c3ccnc4[nH]ccc34)c2O1)N1CCC(CCO)CC1 [(R)-(5-chloro-7-(1H-pyrrolo[2,3-b]pyridin-4-yl)-2,3-dihydrobenzofuran-2-yl)(4-(2-hydroxyethyl)piperidin-1-yl)methanone]
< 1000 nM | C[C@H](c1cc2nccc(-c3cc(Cl)cc4c3O[C@@H](C(=O)N3CCNCC3)C4)c2s1)N1C(=O)CCC1=O [1-((R)-1-(7-((R)-5-chloro-2-(piperazine-1-carbonyl)-2,3-dihydrobenzofuran-7-yl)thieno[3,2-b]pyridin-2-yl)ethyl)pyrrolidine-2,5-dione]
1000 to 10000 nM | CC(=O)NCC1Cc2nccc(-c3cc(Cl)cc4c3O[C@@H](C(=O)N3CCNCC3)C4)c2C1 (stereo partly drawn) [N-((4-((R)-5-chloro-2-(piperazine-1-carbonyl)-2,3-dihydrobenzofuran-7-yl)-6,7-dihydro-5H-cyclopenta[b]pyridin-6-yl)methyl)acetamide]
1000 to 10000 nM | O=C(C1Cc2cc(Cl)cc(-c3ccnc4[nH]ccc34)c2O1)N1CCC(O)(c2ccccn2)CC1 (stereo not drawn) [(5-chloro-7-(1H-pyrrolo[2,3-b]pyridin-4-yl)-2,3-dihydrobenzofuran-2-yl)(4-hydroxy-4-(pyridin-2-yl)piperidin-1-yl)methanone]
